Test results published in patent US20180289713A1, “COMPOUNDS FOR TREATING AMYOTROPHIC LATERAL SCLEROSIS” (Hoffmann-La Roche Inc., priority 2015, published 2018).

How the values were obtained:
[1] = test system: full length SMN2 minigene mRNA (HEK293H cell line stably transfected with SMN2-A minigene); assay: SMN2 minigene mRNA splicing RT-qPCR assay in cultured cells; format: cell-based; details: HEK293-H, concentration raising full length SMN2 minigene mRNA 1.5-fold vs vehicle, 24 hours, 7-point curve, read-out: EC1.5x minigene
Description: The term “EC1.5× concentration for production of full length SMN2 minigene mRNA” (or “EC1.5× minigene”) is defined as that concentration of test compound that is effective in increasing the amount of full length SMN2 minigene mRNA to a level 1.5-fold greater relative to that in vehicle-treated cells.
The reverse transcription-quantitative PCR-based (RT-qPCR) assay is used to quantify the level of the full length SMN2 minigene (referred to herein by the term “FL SMN2mini”) mRNA containing SMN2 exon 7 in a HEK293H cell line stably transfected with said minigene and treated with a test compound. Materials used and respective sources are listed below in Table 1.
The SMN2-A minigene construct was prepared as described in International Patent Application WO2009/151546A1 page 145 paragraph [00400] to page 147 paragraph [00412](incl. FIG. 1 and FIG. 3 therein).
HEK293H cells stably transfected with the SMN2-A minigene construct (10,000 cells/well) are seeded in 200 μL of cell culture medium (DMEM plus 10% FBS, with 200 μg/mL hygromycin) in 96-well flat-bottom plates and the plate is immediately swirled to ensure proper dispersal of cells and the formation of an even monolayer of cells. Cells are allowed to attach for 6 hours. Test compounds are serially diluted 3.16-fold in 100% DMSO to generate a 7-point concentration curve. […]
Full length SMN2-A minigene and GAPDH mRNA are quantified using the primers and probes referenced in WO2014/209841A2 on page 80 in Table 1. […]
The increase in the abundance of the FL SMN2mini mRNA relative to that in cells treated with vehicle control is determined from real-time PCR data using a modified […] method (as described in Livak and Schmittgen, Methods, 2001, 25:402-8). The amplification efficiency E is calculated from the slope of the amplification curve for FL SMN2mini and GAPDH individually. The abundance of FL SMN2mini and GAPDH mRNA are then calculated as (1+E)^−Ct, where Ct is the threshold value for each amplicon. […]

patients with ALS = details: cited from earlier work
[2] = test system: SMN levels in SOD1-ALS iPS cell and TDP43-47A iPS cell line; details: dose dependent; SOD1-ALS and TDP43-47A iPSC-derived ALS models; cited from earlier work

SMILES	EC (1.5-fold) [1] [µM]	other results
Cc1cn2nc(-c3cc(=O)n4cc(N5CCNC6(CC6)C5)ccc4n3)ccc2n1 [Example 19, 7-(4,7-diazaspiro[2.5]octan-7-yl)-2-(2-methylimidazo[1,2-b]pyridazin-6-yl)pyrido[1,2-a]pyrimidin-4-one]	0.0102	
Cc1cn2nc(-c3cc(=O)n4cc(N5C[C@@H](C)N[C@@H](C)C5)cc(C)c4n3)cc(C)c2n1 [Example 26, 2-(2,8-dimethylimidazo[1,2-b]pyridazin-6-yl)-7-[(3R,5S)-3,5-dimethylpiperazin-1-yl]-9-methyl-pyrido[1,2-a]pyrimidin-4-one]	0.327	
Cc1cn2nc(-c3cc(=O)n4cc(N5CCNC(C)(C)C5)cc(C)c4n3)cc(C)c2n1 [Example 27, 2-(2,8-dimethylimidazo[1,2-b]pyridazin-6-yl)-7-(3,3-dimethylpiperazin-1-yl)-9-methyl-pyrido[1,2-a]pyrimidin-4-one]	0.0399	
Nc1nc2ccc(OC(F)(F)F)cc2s1 [Riluzole]		improvement of muscular strength (patients with ALS; ALS patients, some reports): does not appear to provide any improvement of muscular strength; extension of life (patients with ALS; at least some patients with ALS): three
CCN1CCC(c2cc(C)c3nc(-c4cc5c(C)nc(C)cn5n4)cc(=O)n3c2)CC1 [SMN-C3]		increase of SMN levels [2]: up to 1.4 fold
